# According to PubChem BioAssay (NCI):
#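 Grown in 96-well plates, cells were treated for 48 hours with each compound at five concentrations. Insufficient inhibition: endpoint recorded as highest concentration tested. The concentration for full growth arrest is given as TGI.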
# How the values were obtained:
# Assay in all cases: NCI-60 cell line screen, 48 h
# [1] = tested on: SF-268 CNS
# [2] = tested on: MOLT-4 leukemia
# [3] = tested on: SK-MEL-2 melanoma
# [4] = tested on: MDA-MB-435
# [5] = tested on: A498 renal
# [6] = tested on: SNB-75 CNS
# [7] = tested on: A549 NSCLC
# [8] = tested on: U251 CNS
# [9] = tested on: OVCAR-4 ovarian
# [10] = tested on: UACC-257 melanoma
# [11] = tested on: OVCAR-3 ovarian
# [12] = tested on: RPMI-8226 leukemia
# [13] = tested on: LOX IMVI melanoma
# [14] = tested on: HT29 colon
# [15] = tested on: MDA-MB-231 breast
# [16] = tested on: MALME-3M melanoma
# [17] = tested on: KM12 colon
# [18] = tested on: ACHN renal
# [19] = tested on: CAKI-1 renal
# [20] = tested on: SR leukemia
# [21] = tested on: SNB-19 CNS
# [22] = tested on: TK-10 renal
# [23] = tested on: PC-3 prostate
# [24] = tested on: SN12C renal
# [25] = tested on: RXF 393 renal
# [26] = tested on: 786-0 renal
# [27] = tested on: EKVX NSCLC
# [28] = tested on: M14 melanoma
# [29] = tested on: OVCAR-8 ovarian
# [30] = tested on: SK-OV-3 ovarian
# [31] = tested on: MDA-N
# [32] = tested on: SF-539 CNS
# [33] = tested on: T-47D breast
# [34] = tested on: CCRF-CEM leukemia
# [35] = tested on: OVCAR-5 ovarian
# [36] = tested on: HL-60(TB) leukemia
# [37] = tested on: HS 578T breast
# [38] = tested on: NCI-H23 lung
# [39] = tested on: IGROV1 ovarian
# [40] = tested on: BT-549 breast
# [41] = tested on: SF-295 CNS
# [42] = tested on: HCT-116 colon
# [43] = tested on: K-562 leukemia
# [44] = tested on: UACC-62 melanoma
# [45] = tested on: NCI-H522 lung
# [46] = tested on: SK-MEL-5 melanoma
# [47] = tested on: SW-620 colon
# [48] = tested on: NCI-H460 lung
# [49] = tested on: COLO 205 colon
# [50] = tested on: HOP-62 NSCLC
# [51] = tested on: HCC-2998 colon
# [52] = tested on: DU-145 prostate
# [53] = tested on: NCI-H226 lung
# [54] = tested on: HCT-15 colon
# [55] = tested on: MCF7 breast
# [56] = tested on: UO-31 renal
# [57] = tested on: SK-MEL-28 melanoma
# [58] = tested on: HOP-92 NSCLC
# [59] = tested on: NCI/ADR-RES ovarian
compound,measurement,setting,value
CN(C)CCNC(=O)c1cnn(C)c1[N+](=O)[O-],TGI,[1],> 100 µM
same,TGI,[2],> 100 µM
same,TGI,[3],> 100 µM
same,TGI,[4],> 100 µM
same,TGI,[5],> 100 µM
same,TGI,[6],> 100 µM
same,TGI,[7],> 100 µM
same,TGI,[8],> 100 µM
same,TGI,[9],> 100 µM
same,TGI,[10],> 100 µM
same,TGI,[11],70.6 µM
same,TGI,[12],> 100 µM
same,TGI,[13],> 100 µM
same,TGI,[14],> 100 µM
same,TGI,[15],> 100 µM
same,TGI,[16],36.1 µM
same,TGI,[17],> 100 µM
same,TGI,[18],> 100 µM
same,TGI,[19],> 100 µM
same,TGI,[20],> 100 µM
same,TGI,[21],> 100 µM
same,TGI,[22],> 100 µM
same,TGI,[23],> 100 µM
same,TGI,[24],> 100 µM
same,TGI,[25],> 100 µM
same,TGI,[26],> 100 µM
same,TGI,[27],> 100 µM
same,TGI,[28],> 100 µM
same,TGI,[29],> 100 µM
same,TGI,[30],> 100 µM
same,TGI,[31],> 100 µM
same,TGI,[32],> 100 µM
same,TGI,[33],> 100 µM
same,TGI,[34],> 100 µM
same,TGI,[35],> 100 µM
same,TGI,[36],> 100 µM
same,TGI,[37],> 100 µM
same,TGI,[38],> 100 µM
same,TGI,[39],> 100 µM
same,TGI,[40],> 100 µM
same,TGI,[41],> 100 µM
same,TGI,[42],> 100 µM
same,TGI,[43],> 100 µM
same,TGI,[44],> 100 µM
same,TGI,[45],> 100 µM
same,TGI,[46],> 100 µM
same,TGI,[47],> 100 µM
same,TGI,[48],> 100 µM
same,TGI,[49],47.8 µM
same,TGI,[50],> 100 µM
same,TGI,[51],> 100 µM
same,TGI,[52],> 100 µM
same,TGI,[53],> 100 µM
same,TGI,[54],> 100 µM
same,TGI,[55],> 100 µM
same,TGI,[56],> 100 µM
same,TGI,[57],> 100 µM
COC(=O)CSC1CC(=O)c2c(Cl)sc(Cl)c21 (centres undefined),TGI,[1],> 100 µM
same,TGI,[2],> 100 µM
same,TGI,[3],> 100 µM
same,TGI,[4],> 100 µM
same,TGI,[6],> 100 µM
same,TGI,[7],> 100 µM
same,TGI,[8],> 100 µM
same,TGI,[9],> 100 µM
same,TGI,[10],> 100 µM
same,TGI,[13],> 100 µM
same,TGI,[14],> 100 µM
same,TGI,[15],> 100 µM
same,TGI,[16],> 100 µM
same,TGI,[17],> 100 µM
same,TGI,[18],> 100 µM
same,TGI,[19],> 100 µM
same,TGI,[20],> 100 µM
same,TGI,[21],> 100 µM
same,TGI,[22],> 100 µM
same,TGI,[23],> 100 µM
same,TGI,[24],> 100 µM
same,TGI,[25],> 100 µM
same,TGI,[26],> 100 µM
same,TGI,[27],> 100 µM
same,TGI,[28],> 100 µM
same,TGI,[29],> 100 µM
same,TGI,[30],> 100 µM
same,TGI,[31],> 100 µM
same,TGI,[33],> 100 µM
same,TGI,[34],> 100 µM
same,TGI,[35],> 100 µM
same,TGI,[37],> 100 µM
same,TGI,[58],> 100 µM
same,TGI,[38],> 100 µM
same,TGI,[39],> 100 µM
same,TGI,[40],> 100 µM
same,TGI,[41],> 100 µM
same,TGI,[42],> 100 µM
same,TGI,[43],> 100 µM
same,TGI,[44],> 100 µM
same,TGI,[45],> 100 µM
same,TGI,[46],> 100 µM
same,TGI,[47],> 100 µM
same,TGI,[48],> 100 µM
same,TGI,[49],> 100 µM
same,TGI,[50],> 100 µM
same,TGI,[51],> 100 µM
same,TGI,[52],> 100 µM
same,TGI,[54],> 100 µM
same,TGI,[55],> 100 µM
same,TGI,[56],> 100 µM
same,TGI,[57],> 100 µM
O=C1OC(c2ccccc2)=N/C1=C\c1ccc(F)cc1,TGI,[1],> 100 µM
same,TGI,[2],> 100 µM
same,TGI,[3],> 100 µM
same,TGI,[4],> 100 µM
same,TGI,[5],> 100 µM
same,TGI,[6],> 100 µM
same,TGI,[59],> 100 µM
same,TGI,[7],> 100 µM
same,TGI,[8],> 100 µM
same,TGI,[9],> 100 µM
same,TGI,[10],> 100 µM
same,TGI,[11],> 100 µM
same,TGI,[12],> 100 µM
same,TGI,[13],> 100 µM
same,TGI,[14],> 100 µM
same,TGI,[15],> 100 µM
same,TGI,[17],> 100 µM
same,TGI,[18],> 100 µM
same,TGI,[19],> 100 µM
same,TGI,[20],> 100 µM
same,TGI,[21],> 100 µM
same,TGI,[22],> 100 µM
same,TGI,[23],> 100 µM
same,TGI,[24],> 100 µM
same,TGI,[25],> 100 µM
same,TGI,[26],> 100 µM
same,TGI,[27],> 100 µM
same,TGI,[28],> 100 µM
same,TGI,[29],> 100 µM
same,TGI,[30],> 100 µM
same,TGI,[31],> 100 µM
same,TGI,[33],> 100 µM
same,TGI,[34],> 100 µM
same,TGI,[35],> 100 µM
same,TGI,[36],> 100 µM
same,TGI,[37],> 100 µM
same,TGI,[58],> 100 µM
same,TGI,[38],> 100 µM
same,TGI,[39],> 100 µM
same,TGI,[40],> 100 µM
same,TGI,[42],> 100 µM
same,TGI,[43],> 100 µM
same,TGI,[44],> 100 µM
same,TGI,[45],> 100 µM
same,TGI,[46],> 100 µM
same,TGI,[47],> 100 µM
same,TGI,[48],> 100 µM
same,TGI,[49],> 100 µM
same,TGI,[50],> 100 µM
same,TGI,[51],> 100 µM
same,TGI,[52],> 100 µM
same,TGI,[53],> 100 µM
same,TGI,[54],> 100 µM
same,TGI,[56],> 100 µM
same,TGI,[57],> 100 µM
